From PubChem BioAssay (NCI)
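48-hour exposure; five concentrations; linearly interpolated endpoints. Abbreviation: GI50, concentration required for 50% inhibition of growth. At the TGI there is no net growth.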

Legend:
Experiment in all cases: inhibition of tumour cell growth, NCI panel, 48 h
U251 CNS = tested on: U251 CNS
786-0 renal = tested on: 786-0 renal
MCF7 breast = tested on: MCF7 breast
SK-OV-3 ovarian = tested on: SK-OV-3 ovarian
OVCAR-5 ovarian = tested on: OVCAR-5 ovarian
HL-60(TB) leukemia = tested on: HL-60(TB) leukemia
HT29 colon = tested on: HT29 colon
HCT-116 colon = tested on: HCT-116 colon
OVCAR-4 ovarian = tested on: OVCAR-4 ovarian
UO-31 renal = tested on: UO-31 renal

Row | SMILES | TGI (U251 CNS) [µM] | TGI (786-0 renal) [µM] | TGI (MCF7 breast) [µM] | TGI (SK-OV-3 ovarian) [µM] | TGI (OVCAR-5 ovarian) [µM] | TGI (HL-60(TB) leukemia) [µM] | TGI (HT29 colon) [µM] | TGI (HCT-116 colon) [µM] | TGI (OVCAR-4 ovarian) [µM] | TGI (UO-31 renal) [µM] | GI50 (U251 CNS) [µM] | GI50 (786-0 renal) [µM] | GI50 (MCF7 breast) [µM] | GI50 (SK-OV-3 ovarian) [µM] | GI50 (OVCAR-5 ovarian) [µM] | GI50 (HL-60(TB) leukemia) [µM] | GI50 (HT29 colon) [µM] | GI50 (HCT-116 colon) [µM] | GI50 (OVCAR-4 ovarian) [µM] | GI50 (UO-31 renal) [µM]
1 | NC(N)=NC(N)=Nc1ccc(C(=O)O)cc1 | > 100 | > 100 | > 100 | > 100 | > 100 | > 100 | > 100 | > 100 | > 100 | > 100 |  |  |  |  |  |  |  |  |  | 
2 | OCCCCC#Cc1ccccc1C#Cc1cccnc1 | 78.6 | 58.3 | > 100 | > 100 | > 100 | 75.1 | 87.8 | > 100 | > 100 | 90.4 | 20.3 | 20.2 | 67.5 | 57.3 | 27.5 | 26.8 | 22.3 | 45.9 | 26.5 | 25.2
3 | COc1ccc(Nc2ncnc3ccc(-c4cncc(NS(C)(=O)=O)c4)cc23)cc1Cl | 13.6 | 13 | 8.01 | 6.93 | 29 | 6.72 | 6.93 | 5.69 | 83.1 | 22.5 | 2.81 | 2.99 | 1.63 | 2.49 | 2.87 | 2.02 | 2.07 | 2.05 | 4.22 | 3.04
4 | O=C(O)COc1ccc(OCC(=O)O)cc1 | 2.47 | 3.62 | 10.7 | 19.8 | 24.8 | 0.873 | 11.6 | 10.3 | 20.3 | 27.5 | 0.251 | 0.456 | 0.0567 | 0.644 | 1.43 | 0.159 | 0.709 | 0.612 | 2.96 | 5.4
5 | O=C1C=CC(=O)c2c1ccc1c3ccccc3n(Cc3ccccc3)c21 | > 100 | 33.1 | 45.6 | > 100 | 72.4 | 15.3 | 57 | 51.9 | 18.1 | 50.1 |  |  |  |  |  |  |  |  |  | 
6 | CC12CCC(=O)C(O1)C1C(=O)c3ccc4c(ccc5ccccc54)c3C(=O)C12 (centres undefined) | 35.6 | 6.01 | 13.4 | > 39.1 | 11.4 | 7.21 | > 100 | 4.71 | 3.01 |  | 18.8 | 2.35 | 3.89 | 11.5 | 6.64 | 1.66 | 13.2 | 3.03 | 1.4 | 6.69
7 | CC(C)=Cc1cc(C)c2ccc(C)c3c2c1C(C)=C(O)C3=O | 56.4 | > 100 | > 100 | 81.2 | 43.1 | 9.9 | > 100 | 34.8 | > 100 | > 100 | 17.9 | 35.9 | 53.5 | 27.4 | 18.7 | 2.99 | 28.7 | 17.7 | > 100 | 23.5
8 | O=C1NC(=O)C(=Cc2cn(Cc3ccccc3)c3ccccc23)C(=O)N1 | 28.9 | 33 | 23 | 29 | 2.15 | 81.6 | > 60.8 | 27.5 | 21 | 31 | 12.8 | 17.1 | 6.54 | 6.3 | 0.332 | 21.4 | 23.5 | 11.7 | 4.84 | 12
9 | COc1ccc2c(c1O)[C@@]13CCCC=C1[C@@H](C2)[N+](C)(C)CC3 | > 100 | > 100 | > 100 | > 100 | > 100 | > 100 | > 100 | > 100 | > 100 | > 100 |  |  |  |  |  |  |  |  |  | 
